Read-outs that look alike come from different tables or passages of the source.
What was measured:
[1] = MTS staining for PBMC viability to measure cytotoxicity; assay type: cell-based, human; conditions: human, PHA-stimulated pooled PBMCs, HIV-infected, infected PBMCs, six days, MTS, unit printed only with high-test concentration, read-out: TC50 (50% cytotoxicity)
Protocol: (§1) Pooling (mixing) of mononuclear cells from more than one donor was used to minimize the variability observed between individual donors, which results from quantitative and qualitative differences in HIV infection and overall response to the PHA and IL-2 of primary lymphocyte populations. Each plate contains virus/cell control wells (cells plus virus) and experimental wells (drug plus cells plus virus). In this in vitro assay, PBMC viability remains high throughout the duration of the incubation period. Therefore, infected wells are used in the assessment of both antiviral activity and cytotoxicity. […] The PBMC cultures were maintained for six days following infection at 37° C., 5% CO2. After this period, cell-free supernatant samples were collected for analysis of reverse transcriptase activity. Following removal of supernatant samples, compound cytotoxicity was measured by addition of MTS to the plates for determination of cell viability. Wells were also examined microscopically and any abnormalities were noted. At assay termination, the assay plates were stained with the soluble tetrazolium-based dye MTS (CellTiter®96 Reagent, Promega) to determine cell viability and quantify compound toxicity. MTS is metabolized by the mitochondrial enzymes of metabolically active cells to yield a soluble formazan product, allowing the rapid quantitative analysis of cell viability and compound cytotoxicity. […] At termination of the assay, 10-25 μL of MTS reagent was added per well (10% final concentration based on volume) and the microtiter plates were then incubated for 4-6 hrs at 37° C., 5% CO2 to assess cell viability. Adhesive plate sealers were used in place of the lids, the sealed plate was inverted several times to mix the soluble formazan product and the plate was read spectrophotometrically at 490/650 nm with a Molecular Devices Vmax or SpectraMax Plus plate reader. […]

HIV-1JR-CSF [2] = system: HIV-1JR-CSF
HIV-1JR-CSF [3] = test: Anti HIV efficacy evaluation in fresh human PBMCs (reverse transcriptase activity); conditions: for IC50: Human immunodeficiency virus 1, PBMC, in Homo sapiens, 144 h, read-out: IC50 (50% inhibition of virus replication)
human PBMCs = test: MTS staining for PBMC viability to measure cytotoxicity; assay type: cell-based; conditions: fixed concentration (10 ng/mL) of TNF-α versus birinapant alone; within expected biological variability
Protocol: as §1

HBV = test: Treatment of HBV infected mice (serum HBV DNA); assay type: in vivo, hepatitis B virus
[4] = system: HIV-infected (GFP+) cultured CD4+ lymphocytes; test: FACS of living (Active-Caspase 3 negative) HIV NL4.3 infected CD4+ lymphocytes; assay type: cell-based, human; conditions: single dose of 10 uM, within 24 hours
[5] = system: Mycobacterium tuberculosis (strain H37Rv); test: Mycobacterium tuberculosis infected mice, lung bacterial burden; assay type: in vivo
[6] = system: primary human hepatocytes infected with HBV; test: Viability (CellTiter-Glo) of primary human hepatocytes infected in vitro with HBV; assay type: cell-based; conditions: forty eight hours after treatment, in the absence of TNF-α
Source text: Primary human hepatocytes were infected in vitro with HBV using an adenoviral delivery system as previously described (Chin R, Earnest-Silveira L, Koeberlein B, Franz S, Zentgraf H, Bowden S, Bock C-T, Torresi J. Modulation of MAPK pathways and cell cycle byreplicating hepatitis B virus: factors contributing tohepatocarcinogenesis. J Hepatology 2007;47:325-37). The delivery system included a green fluorescent protein marker so that the proportion of infected cells could be quantified. Using this system approximately 100% of hepatocytes were infected with HBV. Cells were rested for 2 days after infection and then they were treated with the indicated agents. Forty eight hours after treatment cell viability was assessed using CellTiter-Glo® (Promega, Madison Wis. USA) according to the manufacturer's protocol. This experiment was performed in triplicate and repeated 2 times using 2 independent donors. The highest CellTiter-Glo result from one of the triplicate untreated samples was used to set the 100% viability mark.

[7] = Toxicity of treatment in HBV-infected mice; assay type: in vivo
Protocol: C57BL/6 mice were infected with HBV and 6 days after infection were treated with weekly doses of birinapnat (30 mg/kg administered intraperitoneally) or vehicle control (DMSO) for a total of 3 weeks (3 doses).

Cc1cn([C@H]2C[C@H](N=[N+]=[N-])[C@@H](CO)O2)c(=O)[nH]c1=O [AZT, Zidovudine]
CC50 at 6 days ([1]; high-test concentration 1,000 nM): > 1 µM | Antiviral Index (TC50/IC50) (HIV-1JR-CSF [2]): >584 | IC50 (HIV-1JR-CSF [3]): 0.00171 µM

CC[C@H](NC(=O)[C@H](C)NC)C(=O)N1C[C@@H](O)C[C@H]1Cc1c(-c2[nH]c3cc(F)ccc3c2C[C@@H]2C[C@H](O)CN2C(=O)[C@H](CC)NC(=O)[C@H](C)NC)[nH]c2cc(F)ccc12 [Birinapant, birinapant]
CC50 at 6 days ([1]; high-test concentration 10 μM): 6.47 µM | increase in cytotoxicity in the presence of TNF-α (human PBMCs): 1.6 fold | reduction of HBV viral load compared to vehicle control (HBV; C57BL/6 mice, 30 mg/kg intraperitoneally weekly, after three doses): 2 logs | HBV DNA in serum (HBV; C57BL/6 mice, 39 days after the first dose, all treated mice): no detectable HBV DNA | efficacy against HBV when TNF-α is antagonized (HBV; HBV infected mice injected intraperitoneally with TNF-α antagonizing antibodies): abrogates the efficacy | HIV infected cells that die [4]: 55% | reduction in bacterial burden versus DMSO control ([5]; mice, intraperitoneal, 30 μg/g weekly x3, started 4 weeks after infection, p=0.012): 0.33 Log10 CFU/lung | macroscopic appearance of the lungs ([5]; upon dissection after three weekly doses): pink, uniform and healthier in appearance | death of primary human hepatocytes infected with HBV [6]: not effective | toxicity related to treatment [7]: No toxicity | IC50 (HIV-1JR-CSF [3]): 0.25 µM | increase in antiviral potency in the presence of TNF-α (HIV-1JR-CSF [3]; fixed concentration (10 ng/mL) of TNF-α versus birinapant alone): 6 fold

TNF-α
reduction in HIV replication (HIV-1JR-CSF [3]; TNF-α alone, 10 ng/mL): 35%

TRAIL: TNF-related apoptosis inducing ligand
death of primary human hepatocytes infected with HBV [6]: virtually no efficacy
